Here are results for 3 compounds from patent EP0309421A2, “O-alkanoyl derivatives of 3-amino-2-hydroxypropanesulfonic acid having anticonvulsivant activity and pharmaceutical compositions containing same for the therapeutical treatment of epilepsy” (SIGMA TAU Industrie Farmaceutiche Riunite S.p.A., priority 1987, dated 1989).

The subject of data set [1] is cardiazol-induced convulsions. Description: Anticonvulsivant test, cardiazol-induced convulsions. The format is in vivo, male albino swiss (Charles River) mice. As to the method: (§1) Anticonvulsivant tests were carried out using cardiazol, strychnine and bicuculline at doses of 100 mg/10 ml/kg i.p., 0.73 mg/10 ml/kg s.c. and 2.38 mg/10 ml/kg s.c., respectively, chosen in such a way as to provoke death in 50% of the control animals.
(§2) The tests were carried out in male albino swiss (Charles River) mice weighing 22-24 g. The compound under examination, dissolved in water, was i.p. administered 30 minutes before the convulsivant agent administration.
(§3) As reference substance, 3-APS (200-400-800 mg/10 ml/kg i.p.) was used.

Data set [2] deals with strychnine-induced convulsions. In words: Anticonvulsivant test, strychnine-induced convulsions. The format is in vivo, male albino swiss (Charles River) mice. As to the method:
as §1, §2, §3

The test system of data set [3] is bicuculline-induced convulsions. Description: Anticonvulsivant test, bicuculline-induced convulsions. It counts as in vivo, male albino swiss (Charles River) mice. As to the method: as §1, §2, §3
A short description of data set [4]: Stability of the solid product versus pH (deacylation). Particulars: above it deacylation of the compound takes place. The format is physicochemical. The source says: After it had been cooled to room temperature the mixtured was filtered and the filtrate added dropwise to an Erlenmeyer flask containing about 700 milliliters of ethyl ether. A white precipitate formed which was again dissolved in methanol, filtered and re-precipitated with ether. Upon drying 7.3 g of a white, hygroscopic solid product, stable at pH <6.3 were obtained; above this […] deacylation of the compound takes place. • Elementary analysis: [formula] • NMR corresponding

The subject of data set [5] is male and female Sprague Dawley rats. Description: Toxicity test, oral administration for 15 consecutive days. The format is in vivo. Particulars: 150-450-1350 mg/10 ml/kg for 15 consecutive days. As to the method:
The toxicity tests were carried out on male and female Sprague Dawley rats which were orally administered ST549 at the doses of 150-450-1350 mg/10 ml/kg for 15 consecutive days; the control animals were administered the same volume of vehicle as the test animals.

For data set [6], the system named is male albino swiss mice. Description: Tolerability test, intravenous. The format is in vivo. The settings on record: 1.4 g/kg intravenously, in sterile saline at neutral pH. As to the method:
The tolerability test was carried out on male albino swiss mice weighing 22-24 g.

In data set [7] the test system is FeCl3-induced epilepsy. Description: Antiepileptic activity test (FeCl3-induced epilepsy model). It counts as in vivo, Male albino Wistar rats. Particulars: 500, 250 and 125 mg/kg i.v. ninety minutes following FeCl3 injection; Mann-Whitney's "U" test, P<0.05. As to the method:
Male albino Wistar rats weighing 250-300 g were used. The animals, anaesthetized with Nembutal Na (30 mg/kg e.p.), were stereotactically injected in their left ventral hippocampus one microliter of 0.55 M FeC13 solution (AP =-3.2; L=5.0; H=5.5 Pellegrino and Cushman, 1971). Ten minutes following injection, recording electrodes were implanted: in both ventral hippocampi, two millimeters below the FeC13 injection site (bipolars), bilaterally on the frontoparietal cortex (monopolars). […] The epilepsy degree was assessed by calculating for each animal the number and duration in seconds of the seizures at 5-minute intervals during the whole recording span both in the hippocampus where the injection had been performed and in the contralateral cortex. Moreover, an "index of epileptization" was calculated as the mean product of seizure number times the duration of the seizures in each time interval. […]
The results thus obtained show the antiepileptic activity of the compound assessed by examining the whole phenomenon as it evolves in time via the measure (carried out with the trapezoidal rule) of the area under the curve wherein the average number of seizures and their duration is plotted versus time.

Data set [8] has as its system auricular electroshock. Description: Auricular electroshock (maximal electroshock). The format is in vivo, Male albino Swiss mice. The settings on record: 14 animals, control 6/14. As to the method: Male albino Swiss mice weighing 22-24 g were used in this test. The electroshock conditions were the following: • shock duration: 3 seconds; frequence: 100; pulse amplitude: 0.6 milliseconds, current intensity: 40 milliamperes. • 400 and 800 mg/10 ml/kg of the compound under examination were administered via the intraperitoneal route 30 minutes before the electroshock.
The tests results which illustrate the number of animals preserved from death provoked by maximal electroshock are shown in the following Table 3.
Background: The maximal electroshock test induces tonic seizures with an electrical stimulus.

Setting [9] is: Cardiazol, 3-APS 400 mg/kg i.p.
Setting [10] is: Cardiazol, 3-APS 800 mg/kg i.p.
Where [11] appears, read: doses of 200,400 and 800 mg/10 ml/kg i.p.
Setting [12] is: Strychnine, 3-APS 400 mg/kg i.p.
Where [13] appears, read: Strychnine, 3-APS 800 mg/kg i.p.
Setting [14] is: Bicuculline, 3-APS 800 mg/kg i.p.
The mark [15] stands for this setting: Cardiazol, ST 549 i.p., equimolar to 400 mg/kg 3APS.
The mark [16] stands for this setting: lower dose (equimolar to 200 mg/10 ml/kg of 3-APS).
Where [17] appears, read: Strychnine, ST 549 i.p., equimolar to 400 mg/kg 3APS.
The mark [18] stands for this setting: Bicuculline, ST 549 i.p., equimolar to 400 mg/kg 3APS.

Molecules are shown by their SMILES. Marks after values point to notes of the source that are not given here. Some results are limits rather than exact numbers.

For `NCCCS(=O)(=O)O` [3-APS, 3-aminopropanesulfonic acid], the “% Conv.” value in data set [1] (Cardiazol 100 mg/10 ml/kg i.p., 3-APS 200 mg/kg i.p. 30 min before, 10 animals) came to 100%; in data set [1] (setting [9]), 100%; in data set [1] (setting [10]) it was 100%; in data set [2] (Strychnine 0.73 mg/10 ml/kg s.c., 3-APS 200 mg/kg i.p. 30 min before, 10 animals) it was 100%; in data set [2] (setting [12]) it was 100%; in data set [2] (setting [13]), 100%. The “% Conv.” value in data set [3] (Bicuculline 2.38 mg/10 ml/kg s.c., 3-APS 200 mg/kg i.p. 30 min before, 10 animals) is given as 100%; in data set [3] (Bicuculline, 3-APS 400 mg/kg i.p., 8 animals per group) it was 100* %; in data set [3] (setting [14]), 70%. The “% Death rate” value in data set [1] (Cardiazol, 3-APS 200 mg/kg i.p.) amounted to 50%; in data set [1] (setting [9]) it was 90%; in data set [1] (setting [10]) it was 60%; in data set [2] (Strychnine, 3-APS 200 mg/kg i.p.) it was 90%; in data set [2] (setting [12]), 100%; in data set [2] (setting [13]), 90%. In addition, the “% Death rate” value is reported as 100% in data set [3] (Bicuculline, 3-APS 200 mg/kg i.p.); 75% in data set [3] (Bicuculline, 3-APS 400 mg/kg i.p.); 40% in data set [3] (setting [14]). Besides, the “preservation from cardiazole-induced death” value in data set [1] (setting [11]) is “did not preserve animals”. In data set [2] (setting [11]), the “preservation from strychnine-induced death” value is “did not preserve animals”. In addition, in data set [3] (400 mg/10 ml/kg i.p.), the “latency time of bicuculline-induced death” value is on record as “significantly increased”. For the same compound, the “latency time of the bicuculline-induced first convulsion” value in data set [3] (800 mg/kg i.p.) was “significantly increased”. In addition, in data set [3] (setting [11]), the “preservation from bicuculline-induced death” value is reported as “did not preserve animals”.

Take `CCCC(=O)OC(CN)CS(=O)(=O)O.Cl` (stereo not shown) [ST 477, 3-amino-2-butanoyloxypropanesulfonic acid hydrochloride]: the “stable at pH” value in data set [4] is recorded as less than 6.3.

As to `CC(=O)OC(CN)CS(=O)(=O)O` (stereo not shown) [ST 549, 3-amino-2-acetyloxy propanesulfonic acid], the “% Conv.” value was determined as 100% in data set [1] (Cardiazol, ST 549 i.p., dose equimolar to 200 mg/kg 3APS, 10 animals); 90% in data set [1] (setting [15]); 100% in data set [2] (Strychnine, ST 549 i.p., equimolar to 200 mg/kg 3APS, 10 animals); 100% in data set [2] (setting [17]); 70% in data set [3] (Bicuculline, ST 549 i.p., equimolar to 200 mg/kg 3APS, 10 animals); 60% in data set [3] (setting [18]). Besides, the “% Death rate” value in data set [1] (Cardiazol, ST 549 i.p., equimolar to 200 mg/kg 3APS) amounted to 50%; in data set [1] (setting [15]), 0%; in data set [2] (Strychnine, ST 549 i.p., equimolar to 200 mg/kg 3APS), 90%; in data set [2] (setting [17]), 90%; in data set [3] (Bicuculline, ST 549 i.p., equimolar to 200 mg/kg 3APS) it was 60%; in data set [3] (setting [18]), 60%. Further, the “animals preserved from cardiazol-induced death” value in data set [1] (dose equimolar to 400 mg/10 ml/kg i.p. of 3-APS) is on record as 100%. The “effect on the relevant parameters (cardiazol)” value in data set [1] (setting [16]) is “did not affect the relevant parameters”. For the same compound, the “latency time of strychnine-induced death” value in data set [2] (setting [16]) is recorded as “significantly increased”. The “latency time of strychnine-induced first convulsion” value in data set [2] (setting [16]) was “significantly increased”. Also, the “decrease of bicuculline-induced death rate” value in data set [3] (doses equimolar to 400 and 200 mg/10 ml/kg i.p. of 3-APS) amounted to 30%. For the same compound, in data set [3] (doses equimolar to 400 and 200 mg/10 ml/kg i.p. of 3-APS, printed as "the same percentage"), the “animals preserved from convulsions (bicuculline)” value stood at 30%. In addition, in data set [5], the “general health or behaviour of the animals” value is recorded as “did not affect”. For the same compound, in data set [5] (at the end of the test), the “Autopsy, main organs” value is “did not reveal either alterations or lesions to the main organs”. Also, in data set [5] (with respect to the controls), the “blood and urine parameters” value is listed as “unchanged”. In addition, the tolerability entry in data set [6] is “well tolerated”. For the same compound, the “area under the curve of average number of seizures and their duration versus time, compared with controls” value in data set [7] is listed as “statistically significant difference”. Further, the death rate in data set [8] (400 mg/kg i.p. 30 minutes before the electroshock) and in data set [8] (800 mg/kg i.p. 30 minutes before the electroshock) was 3/14 in each case.
